{"source": "paper PMC9645260", "about": "“Small-molecule inhibitors of P-Rex guanine-nucleotide exchange factors” (Small GTPases, 2022)", "key": {"P-Rex2 DH domain": {"target": "T1, P-Rex2 DH domain (Homo sapiens, UniProt Q70Z35)", "T1 construct": "constitutive Rac-GEF activity of the isolated P-Rex2 DH domain (by 92%); made in house; host or cells: Sf9 cells (baculovirus)", "T1 sequence (Q70Z35 23-214 limits assumed)": "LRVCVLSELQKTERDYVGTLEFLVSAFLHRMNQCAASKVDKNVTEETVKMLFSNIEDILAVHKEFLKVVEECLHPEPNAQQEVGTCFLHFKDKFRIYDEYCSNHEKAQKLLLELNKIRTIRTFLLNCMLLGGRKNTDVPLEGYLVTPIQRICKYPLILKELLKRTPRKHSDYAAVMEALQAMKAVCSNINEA", "assay": "Liposome-based GEF activity assay, isolated P-Rex2 DH domain", "format": "biochemical", "conditions": "200 nM DH domain, read-out: inhibition of constitutive Rac-GEF activity of isolated P-Rex2 DH domain", "protocol": "Full-length N-terminally EE-tagged P-Rex1, P-Rex2, the P-Rex1 DH and DHPH domains and the P-Rex2 DH domain were produced in Sf9 cells using baculoviral transduction and were purified using anti-EE beads, as previously described. Briefly, frozen pellets from 500 ml of Sf9 culture infected with P-Rex expressing high-titre baculovirus were resuspended in ice-cold lysis Sf9-cell lysis buffer 2 (1x PBS, 1% Triton X-100, 5 mM EGTA, 1 mM EDTA, 25 mM NaF, 20 mM β-glycerophosphate, 1 mM DTT, 100 µM PMSF, 10 μg/ml each of leupeptin, pepstatin A, aprotinin and antipain) for 5 min and then ultracentrifuged at 118,000 × g for 1 h at 4°C. Supernatants were incubated with pre-washed anti-EE beads for 90 min on ice with end-over-end rotation. […] Protein concentration and purity were determined by coomassie staining of SDS-PAGE gels. […]\nLiposome-based GEF activity assays were carried out essentially as described, except that GEFs were incubated with inhibitor compounds prior to the assay. […] Small GTPases were isolated using anti-EE antibody-coupled Sepharose beads or glutathione Sepharose beads, as appropriate, by incubation on ice for 90 min with end-over-end rotation, four washes in ice-cold wash buffer and resuspension of beads in Ultima Gold scintillation fluid (Perkin Elmer). ^35S-GTPγS incorporation was assessed by scintillation counting (Packard 1600TR, Liquid Scintillation Analyser)."}, "[1]": {"tested_on": "PAE cells expressing eGFP-P-Rex1", "assay": "PAE cell morphology after PDGF stimulation", "format": "cell-based, pig", "conditions": "1 µM for 15 min", "protocol": "Pig aortic endothelial (PAE) cells, which stably overexpress PDGF receptor beta, were grown at 37°C in a humidified 5% CO2 atmosphere in Ham’s F-12 medium with L-glutamine (PAA) supplemented with 10% FBS, 100 units/ml penicillin and 100 µg/ml streptomycin (complete medium). Cells were passaged by tryptic digest 1:4 approximately every 2 days. PAE cells were transfected with eGFP-P-Rex1 by electroporation as described, resuspended in complete medium without antibiotics and plated onto sterile 22 mm glass coverslips in 6-well plates. After 12 h, cells were washed twice in Ham’s F-12 and serum starved in Ham’s F-12 containing 1% fatty acid-free BSA) for 8 h. PREX-in1 was added to the medium to a concentration of 1 µM, or cells were mock-treated with vehicle control (0.05% DMSO), for 15 min at 37°C. Cells were stimulated with 10 ng/ml PDGF for 10 min, or were mock-stimulated, and then fixed in 4% paraformaldehyde, 50 mM Pipes pH 6.8, 1 mM EGTA, 1 mM MgCl2 for 15 min at RT. Cells were washed in PBS, permeabilized for 10 min in PBS containing 0.2% Triton X-100, washed twice in PBS and once in PBS, 0.1% BSA. The F-actin cytoskeleton was stained by incubating samples with TRITC-Phalloidin (Sigma P1951) in PBS, 0.1% BSA for 45 min at RT in the dark. Coverslips were washed twice in PBS, rinsed once in water, and mounted onto slides using Aqua Polymount (Polysciences, Inc.). Samples were imaged using an AxioImager D2 fluorescence microscope (Zeiss, ×200 magnification), taking 15–20 representative images for each duplicate coverslip. Images were analysed blinded to experimental design using ImageJ, for both manual and automated analysis. Using manual analysis, each cell was assigned to a morphology category (basal, with lamellipodia and membrane ruffles, spread with ruffles). With automated analysis, the surface area and circularity of all cells were quantified using the ‘Set Measurements’ analysis tools of ImageJ after assigning a mask to each cell. To determine the proportion of spread cells, cells with a surface area more than 50% larger than the mean under basal conditions (1246 μm^2) were considered spread. eGFP-P-Rex1 expressing cells were compared to non-green fluorescent cells on the same coverslip."}}}
{"smiles": "COc1ccc(-c2[nH]nc3c2C(c2ccc(-c4ccc(Cl)cc4)o2)C(C#N)=C(N)O3)cc1", "note": "(centres unmarked) [PREX-in1, 6-amino-4-[5-(4-chlorophenyl)-2-furyl]-3-(4-methoxyphenyl)-2,4-dihydropyrano[2,3-c]pyrazole-5-carbonitrile]", "values": [{"measurement": "inhibition at 10 µM", "setting": "P-Rex2 DH domain", "value": 92, "unit": "%"}, {"measurement": "morphology of mock-transfected cells", "setting": "[1]", "value": "did not affect the morphology"}, {"measurement": "P-Rex1 dependent spreading of PDGF-stimulated cells", "setting": "[1]; 10 ng/ml PDGF", "value": "did inhibit"}, {"measurement": "cell circularity", "setting": "[1]; automated analysis", "value": "lack of effect"}, {"measurement": "proportion of cells with lamellipodia or membrane ruffles", "setting": "[1]; manual analysis", "value": "did not affect the proportion of cells with lamellipodia or membrane ruffles"}]}
